Source: PubChem BioAssay AID434951 (Broad Institute, 2010)
The source made the active and inactive calls.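 How the source made its calls: active means a fitted half-maximal concentration EC50 for the rise in nuclear signal no higher than ten times the top dose tested; inconclusive means flat fit with activity between 30% and 70%, or unusable fit; inactive means EC50 beyond ten times the top dose.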

Biological target: Hypoxia-inducible factor 1-alpha (Homo sapiens) (UniProt Q16665)
Experiment: activators of HIF1alpha nuclear accumulation, confirmation, imaging, fluorescence, U2OS GFP-HIF1alpha (AID 434951)
Settings: U2OS GFP-HIF1alpha nuclear intensity, high-content imaging

Chain of Hypoxia-inducible factor 1-alpha (Homo sapiens) (Q16665 whole entry, looked up): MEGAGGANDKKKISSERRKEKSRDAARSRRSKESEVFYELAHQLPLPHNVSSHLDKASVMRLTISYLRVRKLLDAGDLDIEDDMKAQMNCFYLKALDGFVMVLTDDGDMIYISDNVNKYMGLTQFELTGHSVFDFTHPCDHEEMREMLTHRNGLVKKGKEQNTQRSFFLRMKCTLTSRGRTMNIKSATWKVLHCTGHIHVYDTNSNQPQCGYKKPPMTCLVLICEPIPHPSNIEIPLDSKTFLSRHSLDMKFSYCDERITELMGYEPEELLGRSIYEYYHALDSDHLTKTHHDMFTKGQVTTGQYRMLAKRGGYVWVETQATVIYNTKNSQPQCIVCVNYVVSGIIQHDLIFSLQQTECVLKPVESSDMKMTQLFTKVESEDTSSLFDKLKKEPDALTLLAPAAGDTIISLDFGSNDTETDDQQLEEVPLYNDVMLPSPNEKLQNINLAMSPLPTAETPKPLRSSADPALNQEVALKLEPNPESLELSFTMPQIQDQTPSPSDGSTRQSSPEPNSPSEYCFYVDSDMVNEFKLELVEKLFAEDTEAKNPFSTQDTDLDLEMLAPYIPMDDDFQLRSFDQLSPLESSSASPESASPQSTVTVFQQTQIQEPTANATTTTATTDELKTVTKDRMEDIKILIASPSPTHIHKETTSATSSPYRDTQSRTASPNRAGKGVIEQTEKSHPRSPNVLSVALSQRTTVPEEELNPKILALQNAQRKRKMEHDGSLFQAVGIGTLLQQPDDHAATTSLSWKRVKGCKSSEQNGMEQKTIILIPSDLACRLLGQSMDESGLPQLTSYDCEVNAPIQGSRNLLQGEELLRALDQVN

Row | Compound | EC50
1 | CN(Cc1cccnc1)C(=O)c1cc(COc2ccc3ncccc3c2)on1 | > 35 µM (inactive)
2 | Oc1c(C(Nc2cccc(C(F)(F)F)c2)c2ccncc2)ccc2cccnc12 (configuration not stated) | 6.49 µM
3 | O=C(NCc1ccc(F)cc1)C1CCN(S(=O)(=O)N2CCOCC2)CC1 | > 35 µM (inactive)
4 | CCC(=O)NC(c1ccc(C)cc1)c1ccc2cccnc2c1O (configuration not stated) | 3.85 µM
5 | CC1CN(c2nc3ccccn3c(=O)c2/C=C(\C#N)C(=O)N2CCOCC2)CC(C)O1 (configuration not stated) | > 35 µM (inactive)
6 | CN(CC(=O)Nc1ccccc1Oc1ccccc1)Cc1ccccc1F | > 35 µM (inactive)
7 | CC(C)Sc1nc(N)c2c3c(sc2n1)CN(C)CC3 | > 35 µM (inactive)
8 | CCCCC(=O)Nc1ccc(NC(=O)CC)cc1OC | > 35 µM (inactive)
9 | Cc1ccc(Nc2nc(CSc3nnc(-c4ccncc4)n3C)cs2)cc1 | > 35 µM (inactive)
10 | C/C(=C\C(=O)OCC(=O)NCc1ccccc1)C(=O)OCC(=O)NCc1ccccc1 | > 35 µM (inactive)
11 | CSc1sc(C(=O)N2CCCCC2)c(-c2cccs2)c1C#N | > 35 µM (inactive)
12 | C=CCn1c(N2CCCCCC2)nc2c1c(=O)[nH]c(=O)n2C | > 35 µM (inactive)
13 | COc1cccc(-c2cc(C(F)(F)F)n3nc(C(=O)N4CCC5(CC4)OCCO5)cc3n2)c1 | > 35 µM (inactive)
14 | O=C(NCCc1csc(-c2cccc(F)c2)n1)c1ccco1 | > 35 µM (inactive)
15 | CC(C)c1ccc(N(C(=O)c2snc(C(N)=O)c2N)C(C(=O)NC2CCCC2)c2ccncc2)cc1 (configuration not stated) | 21.4 µM
16 | CCC(=O)n1nc(NCc2ccc(OC)c(OC)c2)nc1NCc1ccc(OC)c(OC)c1 | > 35 µM (inactive)
17 | CCN(CC)c1ccc(/C=N/NC(=O)c2ccco2)c(O)c1 | 6.97 µM
18 | O=C(/C=C/c1ccco1)Oc1cc(Br)cc(/C=N/NC(=O)c2ccccc2O)c1 | 5.43 µM
19 | COc1ccc(-c2nc(C#N)c(N3CCN(C(=O)c4ccco4)CC3)o2)cc1OC | > 35 µM (inactive)
20 | COC(=O)Nc1nnc(Cc2ccc(OC)cc2)s1 | > 35 µM (inactive)
21 | CC(=O)Nc1ccc2c(c1)CCCC2=O | > 35 µM (inactive)
22 | Cc1ccc(C(CC(=O)O)C2CCOC(C)(C)C2)cc1 (configuration not stated) | > 35 µM (inactive)
23 | Cc1oc(-c2ccc(Cl)cc2)cc1C(=O)/C(C#N)=C/Nc1cccc(OC(F)(F)F)c1 | > 35 µM (inactive)
24 | CN(C1CCCC1)C1CCN(C(=S)Nc2cc(F)cc(F)c2)CC1 | > 35 µM (inactive)
25 | COC(=O)CCCC1=CC2=CC(=O)C(C)(OC(=O)c3cccs3)C(=O)C2=CN1Cc1ccc2c(c1)OCO2 (configuration not stated) | > 35 µM (inactive)
26 | Oc1c(CN2CCN(c3ccccc3)CC2)cc(Br)c2cccnc12 | 5.65 µM

Row | Compound | EC50
27 | O=C(CN1C(=O)COc2ccc(Cl)cc21)Nc1ccc2c(c1)OCCO2 | > 35 µM (inactive)
28 | COc1ccc(NC(=O)CSc2nc3c(c(=O)[nH]2)CCC3)cc1OC | > 35 µM (inactive)
29 | CCN1/C(=C/c2ccc3cc(C)ccc3[n+]2CC)Sc2ccccc21 | 13.1 µM
30 | Cc1cccc(N2CCN(c3ccc(N4C(=O)CCCC4=O)cc3[N+](=O)[O-])CC2C)c1 (configuration not stated) | > 35 µM (inactive)
31 | O=C(CCc1nnc(-c2ccccc2)o1)c1ccc(Cl)cc1 | > 35 µM (inactive)
32 | O=C(N/N=C/c1cc([N+](=O)[O-])ccc1O)c1cccc2cc[nH]c12 | 20.8 µM
33 | COCCNC(=O)c1sc2nc(-c3ccccc3)cn2c1C | > 35 µM (inactive)
34 | COCCNC(=O)C(=O)NCC1OCCN1S(=O)(=O)c1cc(F)ccc1F (configuration not stated) | > 35 µM (inactive)
35 | Oc1c(C(Nc2nc3ccccc3s2)c2ccco2)ccc2cccnc12 (configuration not stated) | 7.1 µM
36 | CCc1ccc(NC(=O)CSc2ccc(-c3ccccn3)nn2)cc1 | 10.5 µM
37 | CN(CCS(=O)(=O)c1ccc(Cl)cc1)Cc1cccnc1 | > 35 µM (inactive)
38 | Cc1cc(N/C=C/C(=O)c2ccc(Br)cc2)no1 | > 35 µM (inactive)
39 | CCN(CC)CCn1c2ccccc2c2cnc(N)c(C#N)c21 | > 35 µM (inactive)
40 | Cn1c(=O)cc(C(=O)N/N=C/c2ccc(F)cc2)[nH]c1=O | > 35 µM (inactive)
41 | Oc1[nH]c2ccc(Br)cc2c1N=NC(=S)N1CCOCC1 | 6.79 µM
42 | Cn1c(N/N=C/c2cc3ccccc3nc2Cl)nc2ccccc21 | 18.1 µM
43 | OCCC#Cc1ccc(CN2CCN(Cc3ccccc3)C(CCO)C2)cc1 (configuration not stated) | > 35 µM (inactive)
44 | Oc1ccc(Cl)cc1CNCC1CCCO1 (configuration not stated) | > 35 µM (inactive)
45 | COc1ccc(C(=O)CSc2nncn2C)cc1 | > 35 µM (inactive)
46 | CCCC(=O)NC(c1ccc(Cl)cc1)c1ccc2cccnc2c1O (configuration not stated) | 2.22 µM
47 | CCOC(=O)c1sc(=S)n(-c2ccccc2)c1C | > 35 µM (inactive)
48 | CCN(CC(=O)Nc1ccc2c(c1)OCCO2)CC(=O)Nc1ccc2c(c1)OCO2 | > 35 µM (inactive)
49 | Cc1oc(-c2ccc(Cl)cc2)nc1CS(=O)CC(=O)NCCN1CCCCCC1 (configuration not stated) | > 35 µM (inactive)
50 | COc1ccc(-c2cc(C(F)(F)F)nc(S(=O)(=O)CCCC(=O)Nc3cc(C)on3)n2)cc1OC | > 35 µM (inactive)
51 | CN(C)C=NC(=O)c1cn(-c2ccc(F)cc2)c(=O)c2ccccc12 | > 35 µM (inactive)
52 | CCCCN(C(=O)c1c(C)[nH]c(C(=O)OCC)c1C)c1ccccc1 | > 35 µM (inactive)

Row | Compound | EC50
53 | CCN1CCN(c2ncnc3ccc(Br)cc23)CC1 | > 35 µM (inactive)
54 | N/C(=N\OC(=O)c1cccs1)c1ccc(Cl)cc1 | > 35 µM (inactive)
55 | O=C(Nc1cccc(-c2cn3ccccc3n2)c1)C1CC1 | > 35 µM (inactive)
56 | CC(C)(C)c1cc(C(=O)N2CCN(c3ncccn3)CC2)ccn1 | > 35 µM (inactive)
57 | Cc1cc(-c2nnnn2-c2cc(Cl)cc(Cl)c2)no1 | > 35 µM (inactive)
58 | CC(=O)N1CCC(=NNc2nc3ccccc3[nH]2)CC1 | > 35 µM (inactive)
59 | CCCC(=O)NC(c1ccc(N(C)C)cc1)c1ccc2cccnc2c1O (configuration not stated) | 6.62 µM
60 | CCC(=O)c1ccc(N2CCN(C(=O)c3ccc(Br)cc3)CC2)c(F)c1 | > 35 µM (inactive)
61 | Nc1ccc(C(=O)N/N=C\c2cc(N=Nc3cccc4ccccc34)ccc2O)cc1 | 35.8 µM
62 | COc1ccc(CCNC(=O)CC(NC(=O)c2ccccc2Cl)c2ccccc2)cc1 (configuration not stated) | > 35 µM (inactive)
63 | COc1ccccc1OCC(=O)N/N=C/c1c(O)ccc2ccccc12 | 6.2 µM
64 | O=C(CNC(=O)c1ccccc1Br)N/N=C/c1cc(Br)ccc1O | 6.52 µM
65 | C=CCNC(=O)/C(=C/c1cn(-c2ccccc2)nc1-c1cccc([N+](=O)[O-])c1)NC(=O)c1ccccc1 | > 35 µM (inactive)
66 | O=C(N/N=C/C(Br)=C\c1ccccc1)c1n[nH]c2c1CCC2 | 7.85 µM
67 | CCOc1cc(N2CCOCC2)c(OCC)cc1NC(C)C(=O)N1CCC(C)CC1 (configuration not stated) | > 35 µM (inactive)
68 | CC(=O)NC(c1ccc(C(C)C)cc1)c1ccc2cccnc2c1O (configuration not stated) | 1.33 µM
69 | CC(=O)Nc1cccc(NC(=O)CS(=O)(=O)c2cn(CC(=O)N3CCOCC3)c3ccccc23)c1 | > 35 µM (inactive)
70 | Cc1ccc(-c2nnc(Sc3nc4ccccc4o3)c3ccccc23)cc1 | 16.9 µM
71 | OCCNc1c2ccccc2nc2ccccc12 | 32.4 µM
72 | COc1ccc(-c2csc(NNC3=NCCCCC3)n2)cc1 | 30.1 µM
73 | Cc1ccc(C2=NS(=O)(=O)N(C)C(C(=O)NC3CCCC3)=C2)cc1 | > 35 µM (inactive)
74 | Cc1ccc(NC(=S)N/C(=N/S(=O)(=O)c2ccccc2)c2ccccc2)cc1 | > 35 µM (inactive)
75 | COc1ccc2cc3c(N)nn(C(=O)Cc4c[nH]c5ccccc45)c3nc2c1 | > 35 µM (inactive)
76 | CC(=O)Nc1ccc2nc(NC(=O)COc3ccccc3C)sc2c1 | > 35 µM (inactive)
77 | Cc1ccc(C2=NOC(=O)/C2=C\c2ccccc2)cc1 | > 35 µM (inactive)
78 | O=C1CCCC(O)=C1C=Nc1cccc(C(F)(F)F)c1 | > 35 µM (inactive)

Row | Compound | EC50
79 | COc1ccc(NC(=O)c2cccs2)cn1 | > 35 µM (inactive)
80 | Cc1ccc(S(=O)(=O)Nc2cc(-c3ccc(Cl)cc3)nn2C)cc1 | > 35 µM (inactive)
81 | CCOC(=O)c1c(S(=O)(=O)N2CCCC2)c(C)n(C)c1C | > 35 µM (inactive)
82 | COc1ccc(-n2c(C)csc2=S)cc1 | > 35 µM (inactive)
83 | O=C(O)c1cccc(-n2cccc2/C=C2/SC(=O)N(CC(=O)N3CCCC3)C2=O)c1 | > 35 µM (inactive)
84 | C/C(=N\NC(=O)Cc1ccc(Br)cc1)c1cccnc1 | > 35 µM (inactive)
85 | O=C(N/N=C/c1cccnc1)c1ccc(NC(=O)c2ccc(Cl)cc2)cc1 | > 35 µM (inactive)
86 | COCCNC(=O)c1cc(-c2cccs2)on1 | 12 µM
87 | O=C(N/N=C\c1c(O)ccc2ccccc12)c1ccc(Cn2cccn2)o1 | 5.3 µM
88 | Brc1ccc(N/N=C(/N=Nc2nn[nH]n2)c2ccccc2)cc1 | 5.73 µM
89 | ON=C1c2cc(OCCN3CCCCC3)ccc2-c2ccc(OCCN3CCCCC3)cc21 | 8.97 µM
90 | CC(=O)Nc1ccc(S(=O)(=O)Nc2ccc(S(=O)(=O)Nc3nccs3)cc2)cc1 | > 35 µM (inactive)
91 | CCOC(=O)CCS(=O)(=O)c1nc(-c2ccccc2)cc(C(F)(F)F)n1 | > 35 µM (inactive)
92 | CC(=O)c1ccc(N2C(=NC(=O)COc3ccccc3)SC3CS(=O)(=O)CC32)cc1 (configuration not stated) | > 35 µM (inactive)
93 | N#CC(=C=[N-])c1nc2ccccc2nc1-[n+]1cccc(NC(=O)c2ccc(F)cc2)c1 | > 35 µM (inactive)
94 | CN(C(=O)COC(=O)c1ccc(F)c(S(=O)(=O)N2CCOCC2)c1)C1CCS(=O)(=O)C1 (configuration not stated) | > 35 µM (inactive)
95 | CN(C)CCCN(C(=O)CCS(=O)(=O)c1ccccc1)c1nc2cc3c(cc2s1)OCO3 | > 35 µM (inactive)
96 | COc1cc(SC)ccc1C(=O)Nc1ccc(C)cc1C | > 35 µM (inactive)
97 | COc1ccc(C(=O)/C=C/C(=O)N(CC(=O)NC2CCCCC2)CC2CCCO2)c(O)c1 (configuration not stated) | > 35 µM (inactive)
98 | CN1CCN(C2Cc3ccc(F)cc3Sc3cc(F)c(Cl)cc32)CC1 (configuration not stated) | > 35 µM (inactive)
99 | COc1ccc(NC(=O)CCS(=O)(=O)c2ccc3c(c2)CCN3C(C)=O)cc1 | > 35 µM (inactive)
100 | CCC1CCCCN1CCCNC(=O)C1CCN(c2nnc(-n3cccc3)s2)CC1 (configuration not stated) | > 35 µM (inactive)
101 | O=C(Nc1ccccc1O)c1ccc(NC(=O)C2CC2)cc1 | 10.8 µM
102 | CC(C)C(=O)NC(c1ccco1)c1ccc2cccnc2c1O (configuration not stated) | 4.47 µM
